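Growth conditions: 96-well plates. Treatment: test compound, 48 hours, 5 concentrations. Analysis: linear interpolation between bracketing concentrations; unreached endpoints set to highest concentration. At the TGI there is no net growth.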
What was measured:
Assay in all cases: NCI-60 cell line screen, 48 h
COLO 205 colon = tested on: COLO 205 colon
ACHN renal = tested on: ACHN renal
UO-31 renal = tested on: UO-31 renal
DMS 273 small cell lung = tested on: DMS 273 small cell lung
NCI-H23 lung = tested on: NCI-H23 lung
M14 melanoma = tested on: M14 melanoma
IGROV1 ovarian = tested on: IGROV1 ovarian
TK-10 renal = tested on: TK-10 renal
OVCAR-5 ovarian = tested on: OVCAR-5 ovarian
SR leukemia = tested on: SR leukemia
SNB-78 CNS = tested on: SNB-78 CNS
HOP-62 NSCLC = tested on: HOP-62 NSCLC
SW-620 colon = tested on: SW-620 colon
HCT-116 colon = tested on: HCT-116 colon
HOP-18 NSCLC = tested on: HOP-18 NSCLC
LOX IMVI melanoma = tested on: LOX IMVI melanoma
SK-MEL-5 melanoma = tested on: SK-MEL-5 melanoma
OVCAR-4 ovarian = tested on: OVCAR-4 ovarian
RXF 393 renal = tested on: RXF 393 renal
HL-60(TB) leukemia = tested on: HL-60(TB) leukemia
NCI-H226 lung = tested on: NCI-H226 lung
SF-295 CNS = tested on: SF-295 CNS
SNB-19 CNS = tested on: SNB-19 CNS
OVCAR-8 ovarian = tested on: OVCAR-8 ovarian
NCI-H460 lung = tested on: NCI-H460 lung
K-562 leukemia = tested on: K-562 leukemia
MOLT-4 leukemia = tested on: MOLT-4 leukemia
SNB-75 CNS = tested on: SNB-75 CNS
786-0 renal = tested on: 786-0 renal
MALME-3M melanoma = tested on: MALME-3M melanoma
OVCAR-3 ovarian = tested on: OVCAR-3 ovarian
NCI-H522 lung = tested on: NCI-H522 lung
CAKI-1 renal = tested on: CAKI-1 renal
HT29 colon = tested on: HT29 colon
HCT-15 colon = tested on: HCT-15 colon
KM20L2 colon = tested on: KM20L2 colon
SK-MEL-28 melanoma = tested on: SK-MEL-28 melanoma
UACC-62 melanoma = tested on: UACC-62 melanoma
SK-OV-3 ovarian = tested on: SK-OV-3 ovarian
HOP-92 NSCLC = tested on: HOP-92 NSCLC
DLD-1 colon = tested on: DLD-1 colon
SK-MEL-2 melanoma = tested on: SK-MEL-2 melanoma
SF-268 CNS = tested on: SF-268 CNS
A549 NSCLC = tested on: A549 NSCLC
UACC-257 melanoma = tested on: UACC-257 melanoma
M19-MEL melanoma = tested on: M19-MEL melanoma
LXFL 529 NSCLC = tested on: LXFL 529 NSCLC
EKVX NSCLC = tested on: EKVX NSCLC
A498 renal = tested on: A498 renal
KM12 colon = tested on: KM12 colon
SF-539 CNS = tested on: SF-539 CNS
CCRF-CEM leukemia = tested on: CCRF-CEM leukemia
RXF-631 renal = tested on: RXF-631 renal
SN12C renal = tested on: SN12C renal
U251 CNS = tested on: U251 CNS
DMS 114 small cell lung = tested on: DMS 114 small cell lung
RPMI-8226 leukemia = tested on: RPMI-8226 leukemia
HCC-2998 colon = tested on: HCC-2998 colon

Cc1ccc(-n2c(O)c(C=N)c(=O)n(-c3ccc(C)cc3)c2=O)cc1
TGI (COLO 205 colon): > 100 µM
TGI (ACHN renal): > 100 µM
TGI (UO-31 renal): > 100 µM
TGI (DMS 273 small cell lung): > 100 µM
TGI (NCI-H23 lung): > 100 µM
TGI (M14 melanoma): > 100 µM
TGI (IGROV1 ovarian): > 100 µM
TGI (TK-10 renal): > 100 µM
TGI (OVCAR-5 ovarian): > 100 µM
TGI (SR leukemia): > 100 µM
TGI (SNB-78 CNS): > 100 µM
TGI (HOP-62 NSCLC): > 100 µM
TGI (SW-620 colon): > 100 µM
TGI (HCT-116 colon): > 100 µM
TGI (HOP-18 NSCLC): > 100 µM
TGI (LOX IMVI melanoma): > 100 µM
TGI (SK-MEL-5 melanoma): > 100 µM
TGI (OVCAR-4 ovarian): > 100 µM
TGI (RXF 393 renal): > 100 µM
TGI (HL-60(TB) leukemia): > 100 µM
TGI (NCI-H226 lung): > 100 µM
TGI (SF-295 CNS): > 100 µM
TGI (SNB-19 CNS): > 100 µM
TGI (OVCAR-8 ovarian): > 100 µM
TGI (NCI-H460 lung): > 100 µM
TGI (K-562 leukemia): > 100 µM
TGI (MOLT-4 leukemia): > 100 µM
TGI (SNB-75 CNS): 75.2 µM
TGI (786-0 renal): > 100 µM
TGI (MALME-3M melanoma): > 100 µM
TGI (OVCAR-3 ovarian): > 100 µM
TGI (NCI-H522 lung): > 100 µM
TGI (CAKI-1 renal): > 100 µM
TGI (HT29 colon): > 100 µM
TGI (HCT-15 colon): > 100 µM
TGI (KM20L2 colon): > 100 µM
TGI (SK-MEL-28 melanoma): > 100 µM
TGI (UACC-62 melanoma): > 100 µM
TGI (SK-OV-3 ovarian): 78.8 µM
TGI (HOP-92 NSCLC): 95.9 µM
TGI (DLD-1 colon): > 100 µM
TGI (SK-MEL-2 melanoma): > 100 µM
TGI (SF-268 CNS): > 100 µM
TGI (A549 NSCLC): > 100 µM
TGI (UACC-257 melanoma): > 100 µM
TGI (M19-MEL melanoma): > 100 µM
TGI (LXFL 529 NSCLC): > 100 µM
TGI (EKVX NSCLC): > 100 µM
TGI (A498 renal): > 100 µM
TGI (KM12 colon): > 100 µM
TGI (SF-539 CNS): > 100 µM
TGI (CCRF-CEM leukemia): > 100 µM
TGI (RXF-631 renal): > 100 µM
TGI (SN12C renal): > 100 µM

O=C(CC1(O)C(=O)Nc2c(Cl)cc(Cl)cc21)c1ccc(Br)cc1 (configuration not stated)
TGI (COLO 205 colon): > 56.1 µM
TGI (ACHN renal): 28.8 µM
TGI (UO-31 renal): 17.4 µM
TGI (DMS 273 small cell lung): 28.8 µM
TGI (U251 CNS): 26.9 µM
TGI (NCI-H23 lung): 29.3 µM
TGI (M14 melanoma): 31.8 µM
TGI (IGROV1 ovarian): 35.3 µM
TGI (TK-10 renal): 32.1 µM
TGI (DMS 114 small cell lung): > 53.8 µM
TGI (OVCAR-5 ovarian): 31.4 µM
TGI (SR leukemia): 62.1 µM
TGI (SNB-78 CNS): 47 µM
TGI (HOP-62 NSCLC): 35.7 µM
TGI (SW-620 colon): > 53 µM
TGI (HCT-116 colon): 34.7 µM
TGI (HOP-18 NSCLC): 30.4 µM
TGI (LOX IMVI melanoma): > 50.2 µM
TGI (SK-MEL-5 melanoma): 31.3 µM
TGI (OVCAR-4 ovarian): 25.6 µM
TGI (RXF 393 renal): 31.1 µM
TGI (HL-60(TB) leukemia): 18.6 µM
TGI (NCI-H226 lung): 29.5 µM
TGI (SF-295 CNS): > 55.4 µM
TGI (SNB-19 CNS): 35.5 µM
TGI (OVCAR-8 ovarian): > 52.2 µM
TGI (NCI-H460 lung): > 56.3 µM
TGI (K-562 leukemia): > 72.8 µM
TGI (MOLT-4 leukemia): > 63.5 µM
TGI (SNB-75 CNS): 39.5 µM
TGI (786-0 renal): 26.4 µM
TGI (MALME-3M melanoma): > 56.1 µM
TGI (OVCAR-3 ovarian): 29.8 µM
TGI (NCI-H522 lung): 32.4 µM
TGI (CAKI-1 renal): 33 µM
TGI (HT29 colon): > 57.9 µM
TGI (HCT-15 colon): > 56.3 µM
TGI (KM20L2 colon): 32.9 µM
TGI (SK-MEL-28 melanoma): 35.1 µM
TGI (UACC-62 melanoma): 23.2 µM
TGI (SK-OV-3 ovarian): 64 µM
TGI (HOP-92 NSCLC): 29.7 µM
TGI (DLD-1 colon): 18.9 µM
TGI (RPMI-8226 leukemia): 50.6 µM
TGI (SK-MEL-2 melanoma): > 57.8 µM
TGI (SF-268 CNS): 34.4 µM
TGI (A549 NSCLC): 44.2 µM
TGI (HCC-2998 colon): > 56.1 µM
TGI (UACC-257 melanoma): > 51.3 µM
TGI (M19-MEL melanoma): > 20 µM
TGI (LXFL 529 NSCLC): > 52.4 µM
TGI (EKVX NSCLC): 29.1 µM
TGI (A498 renal): > 66 µM
TGI (KM12 colon): 30.6 µM
TGI (SF-539 CNS): 31.2 µM
TGI (CCRF-CEM leukemia): > 55 µM
TGI (RXF-631 renal): 25.4 µM
TGI (SN12C renal): > 50.4 µM

— PubChem BioAssay (NCI)
